{"source": "ChEMBL document CHEMBL1130402", "about": "“Effect of stereochemistry on the clearance mechanism of 111In(III)-labeled D- or L-benzyldiethylenetriaminepentaacetic acid” (J Med Chem, 1997)", "key": {"Rattus norvegicus [1]": {"species": "Rattus norvegicus", "test": "Ratio of biodistribution in kidney and blood in normal Wistar rats at 30 min after injecting the compound", "type": "ADME, organism-based", "conditions": "in vivo, 0.5 h"}, "[2]": {"test": "Compound was tested for % clearance through the urine in jaundiced (TR-) Wistar rats", "type": "ADME, organism-based", "conditions": "rat"}, "Rattus norvegicus [3]": {"species": "Rattus norvegicus", "test": "Ratio of biodistribution in liver and blood in normal Wistar rats at 5 min. after injecting the compound", "type": "ADME, organism-based", "conditions": "in vivo"}, "Rattus norvegicus [4]": {"species": "Rattus norvegicus", "test": "Kidney uptake in normal Wistar rats at 15 min", "type": "ADME, organism-based", "conditions": "in vivo, 0.25 h"}, "Rattus norvegicus [5]": {"species": "Rattus norvegicus", "test": "Ratio of biodistribution in kidney and blood in normal Wistar rats at 5 min after injecting the compound.", "type": "ADME, organism-based", "conditions": "in vivo"}, "[6]": {"test": "Compound was tested for % clearance through the faeces in Wistar rats", "type": "ADME, organism-based", "conditions": "rat, read-out: Feces"}, "Rattus norvegicus [7]": {"species": "Rattus norvegicus", "test": "Ratio of biodistribution in kidney and blood in normal Wistar rats at 15 min after injecting the compound.", "type": "ADME, organism-based", "conditions": "in vivo, 0.25 h"}, "Rattus norvegicus [8]": {"species": "Rattus norvegicus", "test": "Ratio of biodistribution in kidney and blood in normal Wistar rats at 60 min after injecting the compound", "type": "ADME, organism-based", "conditions": "in vivo, 1 h"}, "Rattus norvegicus [9]": {"species": "Rattus norvegicus", "test": "The biodistribution in liver in normal Wistar rats at 5 min", "type": "ADME, organism-based", "conditions": "in vivo"}, "Rattus norvegicus [10]": {"species": "Rattus norvegicus", "test": "The biodistribution in liver in normal Wistar rats at 60 min", "type": "ADME, organism-based", "conditions": "in vivo, 1 h"}, "Rattus norvegicus [11]": {"species": "Rattus norvegicus", "test": "The biodistribution in liver in normal Wistar rats at 30 min", "type": "ADME, organism-based", "conditions": "in vivo, 0.5 h"}, "Rattus norvegicus [12]": {"species": "Rattus norvegicus", "test": "The biodistribution in blood in normal Wistar rats at 5 min", "type": "ADME, organism-based", "conditions": "in vivo"}, "Rattus norvegicus [13]": {"species": "Rattus norvegicus", "test": "Kidney uptake in normal Wistar rats at 5 min", "type": "ADME, organism-based", "conditions": "in vivo"}, "Rattus norvegicus [14]": {"species": "Rattus norvegicus", "test": "Ratio of biodistribution in liver and blood in normal Wistar rats at 60 min. after injecting the compound", "type": "ADME, organism-based", "conditions": "in vivo, 1 h"}, "[15]": {"test": "Compound was tested for % clearance through the urine in normal rat", "type": "ADME, organism-based"}, "[16]": {"test": "Compound was tested for % clearance through the faeces in jaundice Wistar rats", "type": "ADME, organism-based", "conditions": "rat, read-out: Feces"}, "Rattus norvegicus [17]": {"species": "Rattus norvegicus", "test": "The biodistribution in bone in normal Wistar rats at 5 min", "type": "ADME, organism-based, Bone element", "conditions": "in vivo"}, "Rattus norvegicus [18]": {"species": "Rattus norvegicus", "test": "The biodistribution in bone in normal Wistar rats at 15 min", "type": "ADME, organism-based, Bone element", "conditions": "in vivo, 0.25 h"}, "Rattus norvegicus [19]": {"species": "Rattus norvegicus", "test": "The biodistribution in bone in normal Wistar rats at 30 min", "type": "ADME, organism-based, Bone element", "conditions": "in vivo, 0.5 h"}, "Rattus norvegicus [20]": {"species": "Rattus norvegicus", "test": "The biodistribution in liver in normal Wistar rats at 15 min", "type": "ADME, organism-based", "conditions": "in vivo, 0.25 h"}, "Rattus norvegicus [21]": {"species": "Rattus norvegicus", "test": "Ratio of biodistribution in liver and blood in normal Wistar rats at 15 min. after injecting the compound", "type": "ADME, organism-based", "conditions": "in vivo, 0.25 h"}, "Rattus norvegicus [22]": {"species": "Rattus norvegicus", "test": "The biodistribution in bone in normal Wistar rats at 60 min", "type": "ADME, organism-based, Bone element", "conditions": "in vivo, 1 h"}, "Rattus norvegicus [23]": {"species": "Rattus norvegicus", "test": "Kidney uptake in normal Wistar rats at 60 min", "type": "ADME, organism-based", "conditions": "in vivo, 1 h"}, "Rattus norvegicus [24]": {"species": "Rattus norvegicus", "test": "Kidney uptake in normal Wistar rats at 30 min", "type": "ADME, organism-based", "conditions": "in vivo, 0.5 h"}, "Rattus norvegicus [25]": {"species": "Rattus norvegicus", "test": "The biodistribution in blood in normal Wistar rats at 15 min", "type": "ADME, organism-based", "conditions": "in vivo, 0.25 h"}, "Rattus norvegicus [26]": {"species": "Rattus norvegicus", "test": "Ratio of biodistribution in liver and blood in normal Wistar rats at 30 min. after injecting the compound", "type": "ADME, organism-based", "conditions": "in vivo, 0.5 h"}, "Rattus norvegicus [27]": {"species": "Rattus norvegicus", "test": "The biodistribution in blood in normal Wistar rats at 30 min", "type": "ADME, organism-based", "conditions": "in vivo, 0.5 h"}, "Rattus norvegicus [28]": {"species": "Rattus norvegicus", "test": "The biodistribution in blood in normal Wistar rats at 60 min", "type": "ADME, organism-based", "conditions": "in vivo, 1 h"}, "Rattus norvegicus [29]": {"species": "Rattus norvegicus", "test": "Ratio of biodistribution in kidney and blood in normal Wistar rats at 15 min after injecting the compound", "type": "ADME, organism-based", "conditions": "in vivo, 0.25 h"}, "Rattus norvegicus [30]": {"species": "Rattus norvegicus", "test": "Ratio of biodistribution in kidney and blood in normal Wistar rats at 5 min after injecting the compound", "type": "ADME, organism-based", "conditions": "in vivo"}, "[31]": {"test": "Compound was tested for % clearance through the faeces in jaundiced (TR-) Wistar rats", "type": "ADME, organism-based", "conditions": "rat, read-out: Feces"}, "[32]": {"test": "Compound was tested for % clearance through the faeces in normal Wistar rats", "type": "ADME, organism-based", "conditions": "rat, read-out: Feces"}}}
{"smiles": "O=C(O)CN(CCN(CCN(CC(=O)O)CC(=O)O)[C@H](Cc1ccccc1)C(=O)O)CC(=O)O", "values": [{"measurement": "ID/organ", "setting": "Rattus norvegicus [1]", "result": 0.46}, {"measurement": "dose excreted", "setting": "[2]", "result": 80.4, "unit": "%"}, {"measurement": "ID/organ", "setting": "Rattus norvegicus [3]", "result": 1.46}, {"measurement": "ID/organ", "setting": "Rattus norvegicus [4]", "result": 1.63, "unit": "%"}, {"measurement": "ID/organ", "setting": "Rattus norvegicus [5]", "result": 0.33}, {"measurement": "dose excreted", "setting": "[6]", "result": 42.8, "unit": "%"}, {"measurement": "ID/organ", "setting": "Rattus norvegicus [7]", "result": 0.36}, {"measurement": "ID/organ", "setting": "Rattus norvegicus [8]", "result": 0.82}, {"measurement": "ID/organ", "setting": "Rattus norvegicus [9]", "result": 15.6, "unit": "%"}, {"measurement": "ID/organ", "setting": "Rattus norvegicus [10]", "result": 1.1, "unit": "%"}, {"measurement": "ID/organ", "setting": "Rattus norvegicus [11]", "result": 3.15, "unit": "%"}, {"measurement": "ID/organ", "setting": "Rattus norvegicus [12]", "result": 10.7, "unit": "%"}, {"measurement": "ID/organ", "setting": "Rattus norvegicus [13]", "result": 3.45, "unit": "%"}, {"measurement": "ID/organ", "setting": "Rattus norvegicus [14]", "result": 1.6}, {"measurement": "dose excreted", "setting": "[15]", "result": 51.9, "unit": "%"}, {"measurement": "dose excreted", "setting": "[16]", "result": 10.6, "unit": "%"}, {"measurement": "ID/organ", "setting": "Rattus norvegicus [17]", "result": 3.28, "unit": "%"}, {"measurement": "ID/organ", "setting": "Rattus norvegicus [18]", "result": 3.81, "unit": "%"}, {"measurement": "ID/organ", "setting": "Rattus norvegicus [19]", "result": 2.31, "unit": "%"}, {"measurement": "ID/organ", "setting": "Rattus norvegicus [20]", "result": 7.63, "unit": "%"}, {"measurement": "ID/organ", "setting": "Rattus norvegicus [21]", "result": 1.69}, {"measurement": "ID/organ", "setting": "Rattus norvegicus [22]", "result": 2.4, "unit": "%"}, {"measurement": "ID/organ", "setting": "Rattus norvegicus [23]", "result": 0.57, "unit": "%"}, {"measurement": "ID/organ", "setting": "Rattus norvegicus [24]", "result": 0.92, "unit": "%"}, {"measurement": "ID/organ", "setting": "Rattus norvegicus [25]", "result": 4.67, "unit": "%"}, {"measurement": "ID/organ", "setting": "Rattus norvegicus [26]", "result": 1.55}, {"measurement": "ID/organ", "setting": "Rattus norvegicus [27]", "result": 2.03, "unit": "%"}, {"measurement": "ID/organ", "setting": "Rattus norvegicus [28]", "result": 0.71, "unit": "%"}]}
{"smiles": "O=C(O)CN(CCN(CCN(CC(=O)O)CC(=O)O)[C@@H](Cc1ccccc1)C(=O)O)CC(=O)O", "values": [{"measurement": "ID/organ", "setting": "Rattus norvegicus [1]", "result": 0.74}, {"measurement": "dose excreted", "setting": "[2]", "result": 85, "unit": "%"}, {"measurement": "ID/organ", "setting": "Rattus norvegicus [3]", "result": 1.04}, {"measurement": "ID/organ", "setting": "Rattus norvegicus [4]", "result": 3.04, "unit": "%"}, {"measurement": "ID/organ", "setting": "Rattus norvegicus [29]", "result": 0.48}, {"measurement": "ID/organ", "setting": "Rattus norvegicus [8]", "result": 1.3}, {"measurement": "ID/organ", "setting": "Rattus norvegicus [9]", "result": 13.2, "unit": "%"}, {"measurement": "ID/organ", "setting": "Rattus norvegicus [10]", "result": 0.82, "unit": "%"}, {"measurement": "ID/organ", "setting": "Rattus norvegicus [11]", "result": 2.37, "unit": "%"}, {"measurement": "ID/organ", "setting": "Rattus norvegicus [12]", "result": 12.7, "unit": "%"}, {"measurement": "ID/organ", "setting": "Rattus norvegicus [30]", "result": 0.37}, {"measurement": "dose excreted", "setting": "[31]", "result": 3.3, "unit": "%"}, {"measurement": "ID/organ", "setting": "Rattus norvegicus [13]", "result": 4.74, "unit": "%"}, {"measurement": "ID/organ", "setting": "Rattus norvegicus [14]", "result": 0.99}, {"measurement": "dose excreted", "setting": "[15]", "result": 62, "unit": "%"}, {"measurement": "ID/organ", "setting": "Rattus norvegicus [17]", "result": 4.59, "unit": "%"}, {"measurement": "ID/organ", "setting": "Rattus norvegicus [18]", "result": 3.76, "unit": "%"}, {"measurement": "ID/organ", "setting": "Rattus norvegicus [19]", "result": 2.17, "unit": "%"}, {"measurement": "ID/organ", "setting": "Rattus norvegicus [20]", "result": 6.84, "unit": "%"}, {"measurement": "ID/organ", "setting": "Rattus norvegicus [21]", "result": 1.1}, {"measurement": "ID/organ", "setting": "Rattus norvegicus [22]", "result": 2.43, "unit": "%"}, {"measurement": "ID/organ", "setting": "Rattus norvegicus [23]", "result": 1.1, "unit": "%"}, {"measurement": "ID/organ", "setting": "Rattus norvegicus [24]", "result": 1.96, "unit": "%"}, {"measurement": "dose excreted", "setting": "[32]", "result": 29.2, "unit": "%"}, {"measurement": "ID/organ", "setting": "Rattus norvegicus [25]", "result": 6.36, "unit": "%"}, {"measurement": "ID/organ", "setting": "Rattus norvegicus [26]", "result": 0.9}, {"measurement": "ID/organ", "setting": "Rattus norvegicus [27]", "result": 2.66, "unit": "%"}, {"measurement": "ID/organ", "setting": "Rattus norvegicus [28]", "result": 0.86, "unit": "%"}]}
